Reference: patent EP4178570B1, “VETERINARY COMPOSITIONS FOR PREVENTING AND/OR TREATING LEISHMANIOSIS” (priority 2020, dated 2022)
Where “and” joins values, the source holds several entries; their conditions need not be identical. Equal entries are not always repeated.

Assays:
[1] = tested on: L. infantum life stage forms (promastigote and amastigote); settings: Cortes et al., 2015; cited from earlier work
[2] = tested on: anti-L. infantum specific immunoglobulins G (IgG); assay: Serological monitoring by quantitative IFAT in the field trial; format: in vivo, dogs; settings: for Leishmania-antibody titers (mean ± SD), IFAT: artesunate 25 mg/kg orally 6 days, Glucantime 100 mg/kg s.c. 28 days + allopurinol 30 mg/kg orally one month
Procedure: (§1) Selected dogs were included randomly to one of the two treatment arms. Dogs (N=26) in the Group 1: (positive control) received 100 mg/kg Antimoniate of meglumine (Glucantime®, Merial, France) daily for 28 days subcutaneously, and 30 mg/kg allopurinol (Allopurinol Arraw® 300 mg, France) orally daily for one month. Dogs (N=16) in the Group 2: (chemotherapy of the invention) received 25 mg/kg artesunate (Asu-Denk®; Denk Pharma, Germany) orally for 6 days. […] Dogs were followed up for 180 days (Figure 1).
(§2) Animals were checked on days D0, D+30, D+90 and D+180 after the treatment had started and blood samples were collected each time-points. Clinical signs and lesions associated with leishmaniosis, infection status (parasite load-qPCR and serological) were evaluated and monitored in these points.
At day 0, the immunochromatographic based qualitative rapid test WITNESS® Leishmania (Zoetis, France) was performed according to the manufacturer's instructions using one drop (10 µL) of whole blood from each dog directly after sampling. Quantitative IFAT for the titration of anti-L. infantum specific immunoglobulins G (IgG) was performed on sera for the monitoring as described previously. Briefly, plate wells were sensitized by 20 µL of L. infantum commercial antigens (Zoetis, France). After dilution to 1:50, 20 µl of every serum dilution was applied per well and plates were incubated for 30 min at 37 °C. Plates were washed twice with PBS for 5 min and once with distilled water. 20 µL of IgG anti-dog conjugated with fluorescein isothiacyanate (FITC) (Sigma-Aldrich, St Louis, MO, USA) were added into each well. The plates were incubated for 30 min at 37 °C in the dark. After another washing step, some drops of mounting medium were added on the cover slips and reading was performed. To avoid errors of observation, all samples were examined by two different investigators and positive and negative controls were added in each plate. All samples negative at 1:50 were considered negative. Positive results were further investigated using a […] serial dilution IFAT at 1:100 to 1:1600. At this point, the samples were classified as a high positive for L. infantum (> 1:1600).

L. infantum DNA = assay: Parasite load-qPCR in blood (kDNA) in the field trial; format: in vivo, dogs; design: Parasitemia (% of reduction): concentration or dose not given beside the values; settings: for Parasitemia No. Leish/mL of blood / Parasitemia (% of reduction): individual dogs (one table line per dog); for Parasitemia No. Leish/mL of blood: artesunate 25 mg/kg orally 6 days, Glucantime 100 mg/kg s.c. 28 days + allopurinol 30 mg/kg orally one month
Procedure: as §1, §2
Blood samples collected in each time-point were analyzed for quantification of parasitic load by qPCR using primers and probe for detection and quantification of L. infantum DNA, targeting a conserved region of the kinetoplast minicircle DNA (kDNA) (several 1000's-fold repeated sequence). Prior to DNA extraction, 200 µL of blood were digested with proteinase K and incubated at +56°C overnight. Extraction was performed using a commercial DNA extraction kit (QIAamp DNA Mini Kit®, [Qiagen, Courtaboeuf, France]) and performed on BIOROBOT EZ1 (Qiagen, Qiagen, Courtaboeuf, France) per the manufacturer's instructions. DNA was eluted in 200 µl of distilled water and stored at -20°C until analysis. qPCR was prepared and performed as follows: 20 µL final volume containing 10 µL of Eurogentec Master Mix Roche (Eurogentec, Liège, Belgium), […] of each primer and the probe, 0.5 µL UDG, 3 µL of distilled water DNAse and RNAse free, and 5 µl of the DNA sample, was amplified in a CFX96 Real-Time system (BioRad Laboratories, Foster City, CA, USA) using the following thermal profile: one incubation step at 50°C for two minutes and an initial denaturation step at 95°C for three minutes, followed by 40 cycles of denaturation at 95°C for 15 seconds and annealing extension at 60°C for 30 seconds. Quantification was based on a standard curve which was 8 folds-serial dilution of plasmid of 10^8 copy of DNA/mL from the kDNA region, equivalent of 10000 parasites/mL; 5 µl of serial dilutions ranging from 10000 to 0.001 parasites/mL, was introduced into reaction tubes. Results were expressed as the number of Leishmania parasites present in 1 ml of blood, taking in account the volume (200 µl of blood) and the elution (200 µl) introduced during the extraction process.

L. infantum = assay: Clinical evaluation (clinical score) in open-label randomized comparative clinical field trial of canine leishmaniosis; format: in vivo, dogs
Source text: This was an open-label randomized comparative clinical field trial conducted in the north of Algeria. Prevalence observed in this area was 36%. Client-owned dogs of any age, breed, or gender were enrolled and 11 veterinary practitioners were responsible of the monitoring. All dogs had previously been naturally infected by L. infantum and presented clinical signs. The dogs were fully monitored and treatment could be changed to antimoniate meglumine/allopurinol at the owner's request if clinical impairment was noticed. A total of 187 dogs were enrolled for CanL. Among them, 42 adult sick dogs (30 males and 12 females), 3.8 years average age (min=1, max=11 years), weighing between 3-37 kg and of different breeds (8 german shepherd, 1 belgian shepherd malinois, 2 sloughy, 5 pointers, 6 braques, 1 bagnole, 1 americain staff, 1 beagle and 17 mixed breeds), were selected for this study.
Main inclusion criteria were: i) Dogs with at least two clinical manifestations related to CanL as detailed in the following Table 1) and ii) Dogs with positive serology for Leishmania by the immunochromatographic based qualitative rapid test WITNESS® Leishmania (Zoetis, France) and/or the quantitative indirect immunofluorescence antibody test (IFAT≥ 100) or positive PCR result obtained in blood.
Efficacy criteria were determined by reduction in clinical scores (i.e. the sum of clinical scores was lower than before treatment), in decreasing of parasite DNA and Leishmaniaspecific antibody titers. The score was defined according to the severity of each clinical sign and the final value was obtained from the sum of all the values (Table 1). Quantitative parasite load was estimated through qPCR and the antibody titers through quantitative IFAT. Table 1: Clinical signs related to CanL defined to evaluate the clinical scores of dogs.
Each manifestation was assigned a severity score ranging from 0 to 3, where 0 = none, 1 = mild, 2 = moderate, and 3 = severe (maximum total clinical score = 21). Mortality related to CanL was assessed by the highest score (22).
as §1, §2
The efficacy of treatments was assessed at each time-point based on the clinical response to treatment (evolution of clinical scores over time and the percentage reduction of the total clinical score). For each dog, the same veterinarian conducted all clinical evaluations to maintain consistency. Mortality due to CanL constitutes the higher score (22). The percentage of reduction was calculated according to the formula: Percentage reduction of CS % = (CSatD+XX−CSatD+0)/CS at D + 0) × 100 [formula]

[3] = D+30, artesunate 25 mg/kg orally 6 days (n=15), Glucantime 100 mg/kg s.c. 28 days + allopurinol 30 mg/kg orally one month (n=26)
[4] = D+30, mortality related to CanL included, artesunate 25 mg/kg orally 6 days (n=15), Glucantime 100 mg/kg s.c. 28 days + allopurinol 30 mg/kg orally one month (n=26)
[5] = D+90, artesunate 25 mg/kg orally 6 days (n=15), Glucantime 100 mg/kg s.c. 28 days + allopurinol 30 mg/kg orally one month (n=23)
[6] = D+90, mortality related to CanL included, artesunate 25 mg/kg orally 6 days (n=15), Glucantime 100 mg/kg s.c. 28 days + allopurinol 30 mg/kg orally one month (n=23)
[7] = D+180, artesunate 25 mg/kg orally 6 days (n=15), Glucantime 100 mg/kg s.c. 28 days + allopurinol 30 mg/kg orally one month (n=22)
[8] = D+180, mortality related to CanL included, artesunate 25 mg/kg orally 6 days (n=15), Glucantime 100 mg/kg s.c. 28 days + allopurinol 30 mg/kg orally one month (n=22)

CC1CCC2C(C)C(OC(=O)CCC(=O)O)OC3OC4(C)CCC1C32O4 (centres unmarked) [deoxygenated artesunate]
in vitro activity against L. infantum life stage forms (promastigote and amastigote) [1]: in vitro activity

C[C@H]1[C@H](OC(=O)CCC(=O)O)O[C@@H]2O[C@@]3(C)CC[C@H]4[C@H](C)CC[C@@H]1[C@@]24OO3 [Artesunate]
Leishmania-antibody titers (mean ± SD), IFAT ([2]; D+30): 128.57 ± 212.78 | dogs that became seronegative ([2]; D+ 30, artesunate 7/14, Glucantime/allopurinol 4/26): 50% | dogs with diminution in antibody titers ([2]; D+ 30, artesunate 11/14, Glucantime/allopurinol 15/26): 78.57% | Leishmania-antibody titers (mean ± SD), IFAT ([2]; D+ 180): 37.50 ± 60.77 | dogs turned seronegative ([2]; end of the follow-up, Group 1 5/17, Group 2 7/12, P-Value 0.227): 58.33% | percentage of reduction in antibody titers, comparison of groups ([2]; end of the study, P <0.0001): higher percentage of reduction | in vitro activity against L. infantum life stage forms (promastigote and amastigote) [1]: in vitro activity | Parasitemia No. Leish/mL of blood (L. infantum DNA; D+30): 0 No. Leish/mL of blood and 14 No. Leish/mL of blood and 44 No. Leish/mL of blood and 1,7 No. Leish/mL of blood and 0,17 No. Leish/mL of blood | Parasitemia (% of reduction) (L. infantum DNA; D+30 versus D0): 100% and 19,54% and 63,93% and 99,27% and 98,45% | Parasitemia No. Leish/mL of blood (L. infantum DNA; D+ 90): 0 No. Leish/mL of blood (3×) and 29 No. Leish/mL of blood | Parasitemia (% of reduction) (L. infantum DNA; D+ 90 versus D0): 100% (3×) and -66,67% | Parasitemia No. Leish/mL of blood (L. infantum DNA; D+ 180): 0 No. Leish/mL of blood | Parasitemia (% of reduction) (L. infantum DNA; D+ 180 versus D0): 100% | initially PCR-positive dogs that turned out to be Leishmania-negative (L. infantum DNA; qPCR in blood, over-time after treatment, dogs negative / dogs positive at D0): 5/5 | mean percentage of reduction of clinical score, comparison between the two groups (L. infantum; D+30, D+90 and D+180, p<0.0001 (Mann-Whitney)): More improvement | PARTIAL AMELIORATION (%) (L. infantum; [3]): 80% | PARTIAL AMELIORATION, number of dogs (L. infantum; [3]): 12 | AGGRAVATION (%) (L. infantum; [4]): 20% | AGGRAVATION, number of dogs (L. infantum; [4]): 3 | COMPLETE AMELIORATION (%) (L. infantum; [5]): 20% | COMPLETE AMELIORATION, number of dogs (L. infantum; [5]): 3 | NO CHANGE (%) (L. infantum; [5]): 6.66% | NO CHANGE, number of dogs (L. infantum; [5]): 1 | PARTIAL AMELIORATION (%) (L. infantum; [5]): 53.33% | PARTIAL AMELIORATION, number of dogs (L. infantum; [5]): 8 | AGGRAVATION (%) (L. infantum; [6]): 20% | AGGRAVATION, number of dogs (L. infantum; [6]): 3 | PARTIAL AMELIORATION (%) (L. infantum; D+180 (6 months following up), artesunate 25 mg/kg orally 6 days (n=15), Glucantime 100 mg/kg s.c. 28 days + allopurinol 30 mg/kg orally one month (n=22)): 46.66% | COMPLETE AMELIORATION (%) (complete recovery, CS of 0) (L. infantum; [7]): approximately 26.66% | COMPLETE AMELIORATION, number of dogs (L. infantum; [7]): 4 | PARTIAL AMELIORATION, number of dogs (L. infantum; [7]): 7 | COMPLETE AMELIORATION (%) (complete recovery, CS of 0) (L. infantum; D+180, artesunate 25 mg/kg orally 6 days (n=15), Glucantime 100 mg/kg s.c. 28 days + allopurinol 30 mg/kg orally one month (n=22), listed as ARTESUNATE): 26.66% | AGGRAVATION (%) (clinical aggravation rates) (L. infantum; [8]): 26.66% | AGGRAVATION, number of dogs (L. infantum; [8]): 4 | mortality (L. infantum; D+180, part of the aggravation rate, artesunate 2/15, control group 4/22): 13.33% | dogs died with increasing in the clinical signs related to CanL (L. infantum; between D+60 after the beginning of treatments and the visit D+90): two

CC1CCC2C(C)C(O)OC3OC4(C)CCC1C32O4 (centres unmarked) [deoxygenated dihydroartemisinin]
in vitro activity against L. infantum life stage forms (promastigote and amastigote) [1]: in vitro activity
